# Molecular target: T1, human S1P1 receptors (Homo sapiens, UniProt P21453)
# T1 construct: host or cells: HEK293
# Test: S1P1R antagonist assay (fluorescent membrane potential dye, cAMP readout)
# Type: cell-based
# Conditions: HEK293 cells expressing human S1P1 receptors and CNG channel; 500 nM NECA; S1P1R agonist 10 nM; 90 minutes; read-out: EC50 or IC50 value
# T1 sequence (P21453 whole entry): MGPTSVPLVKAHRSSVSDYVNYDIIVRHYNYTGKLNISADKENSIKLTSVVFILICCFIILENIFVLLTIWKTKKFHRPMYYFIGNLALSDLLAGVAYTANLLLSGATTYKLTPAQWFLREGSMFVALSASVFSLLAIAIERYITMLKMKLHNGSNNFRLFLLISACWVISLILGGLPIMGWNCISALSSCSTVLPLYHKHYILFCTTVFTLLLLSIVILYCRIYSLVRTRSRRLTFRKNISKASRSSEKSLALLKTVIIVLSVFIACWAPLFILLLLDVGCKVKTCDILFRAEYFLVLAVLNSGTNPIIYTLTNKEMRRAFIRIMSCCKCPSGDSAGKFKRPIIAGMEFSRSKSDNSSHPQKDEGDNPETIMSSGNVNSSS
row,SMILES,IC50
1,"O=C(CN1CCN(c2ccccn2)CC1)N[C@@H](COCc1ccccc1)C(=O)Nc1ccc(Oc2ccc(F)cc2)cc1 [Compound 126, (S)-3-(benzyloxy)-N-(4-(4-fluorophenoxy)phenyl)-2-(2-(4-(pyridin-2-yl)piperazin-1-yl)acetamido)propanamide]",> 1 µM
2,"O=C(N[C@@H]1C[C@@H](C(=O)Nc2ccc(Oc3ccc(F)cc3)cc2)N(C(=O)Cc2cnc[nH]2)C1)OCc1ccccc1 [Compound 253, benzyl (3R,5S)-1-(2-(1H-imidazol-5-yl)acetyl)-5-(4-(4-fluorophenoxy)phenylcarbamoyl)pyrrolidin-3-ylcarbamate]",≤ 0.3 µM
3,"O=C(Cc1ccc(Br)cc1)NC(COCc1ccccc1)C(=O)Nc1ccc(Oc2ccccc2)cc1 (stereo not shown) [Compound 390, N-(2-oxo-1-{[(phenylmethyl)oxy]methyl}-2-{[4-(phenyloxy)phenyl]amino}ethyl)-2-(4-bromophenyl)acetamide]",> 1 µM
4,"O=C(Nc1ccc(Oc2ccc(F)cc2)cc1)[C@@H]1C[C@@H](Cc2ccc(Cl)s2)CN1C(=O)Cn1ccnn1 [Compound 65, (2S,4S)-1-(2-(1H-1,2,3-triazol-1-yl)acetyl)-4-((5-chlorothien-2-yl)methyl)-N-(4-(4-fluorophenoxy)phenyl)pyrrolidine-2-carboxamide]",≤ 0.3 µM
5,"O=C(CCC(=O)N1C[C@H](Cc2ccccc2)C[C@H]1C(=O)Nc1ccc(Oc2ccc(F)cc2)cc1)c1cccs1 [Compound 91, (2S,4R)-4-benzyl-N-(4-(4-fluorophenoxy)phenyl)-1-(4-oxo-4-(thien-2-yl)butanoyl)pyrrolidine-2-carboxamide]",≤ 0.3 µM
6,"O=C(Nc1ccc(Oc2ccc(F)cc2)cc1)[C@@H]1C[C@@H](Cc2ccc(F)cc2F)CN1C(=O)Cn1ccnn1 [Compound 267, (2S,4R)-1-(2-(1H-1,2,3-triazol-1-yl)acetyl)-4-(2,4-difluorobenzyl)-N-(4-(4-fluorophenoxy)phenyl)pyrrolidine-2-carboxamide]",≤ 0.3 µM
7,"Cc1cc(CC(=O)NC(COCc2ccccc2)C(=O)Nc2ccc(Oc3ccccc3)cc2)on1 (stereo not shown) [Compound 185, 2-(2-(3-methylisoxazol-5-yl)acetamido)-3-benzyloxy-N-(4-phenoxyphenyl)propanamide]",≤ 0.3 µM
8,"O=C(Cc1cnc[nH]1)N[C@@H](COCc1ccccc1)C(=O)Nc1ccc(Oc2ccccc2)cc1 [Compound 143, (S)-2-(2-(1H-imidazol-5-yl)acetamido)-3-benzyloxy-N-(4-phenoxyphenyl)propanamide]",≤ 0.3 µM
9,"O=C(Cn1cncn1)N[C@@H](COCc1ccccc1Cl)C(=O)Nc1ccc(Oc2ccc(F)cc2)cc1 [Compound 181, (S)-2-(2-(1H-1,2,4-triazol-1-yl)acetamido)-3-(2-chlorobenzyloxy)-N-(4-(4-fluorophenoxy)phenyl)propanamide]",≤ 0.3 µM
10,"O=C(Cc1cnc[nH]1)N[C@@H](CCc1ccccc1)C(=O)Nc1ccc(Oc2ccc(Cl)cc2)cc1 [Compound 157, (S)-2-(2-(1H-imidazol-5-yl)acetamido)-N-(4-(4-chlorophenoxy)phenyl)-4-phenylbutanamide]",≤ 0.3 µM
11,"CC(C(=O)N[C@@H](COCc1ccccc1)C(=O)Nc1ccc(Oc2ccc(F)cc2)cc1)c1c[nH]cn1 (stereo partly drawn) [Compound 167, (2S)-2-(2-(1H-imidazol-4-yl)propanamido)-3-(benzyloxy)-N-(4-(4-fluorophenoxy)phenyl)propanamide]",≤ 0.3 µM
12,"COCCN1CCN(CC(=O)N[C@@H](COCc2ccccc2)C(=O)Nc2ccc(Oc3ccc(F)cc3)cc2)CC1 [Compound 241, (S)-3-(benzyloxy)-N-(4-(4-fluorophenoxy)phenyl)-2-(2-(4-(2-methoxyethyl)piperazin-1-yl)acetamido)propanamide]",0.3 to 1 µM
13,"CC(=O)CCC(=O)N1C[C@H](Cc2ccccc2)C[C@H]1C(=O)Nc1ccc(Oc2ccc(F)cc2)cc1 [Compound 123, (2S,4R)-4-benzyl-N-(4-(4-fluorophenoxy)phenyl)-1-(4-oxopentanoyl)pyrrolidine-2-carboxamide]",≤ 0.3 µM
14,"CCCCOCC(=O)N1C[C@H](Cc2ccccc2)C[C@H]1C(=O)Nc1ccc(Oc2ccc(F)cc2)cc1 [Compound 38, (2S,4R)-4-benzyl-1-(2-butoxyacetyl)-N-(4-(4-fluorophenoxy)phenyl)pyrrolidine-2-carboxamide]",≤ 0.3 µM
15,"O=C(Nc1ccc(Oc2ccc(F)cc2)cc1)[C@@H]1C[C@@H](Cc2ccc(F)cc2)CN1C(=O)Cn1cncn1 [Compound 141, (2S,4R)-1-(2-(1H-1,2,4-triazol-1-yl)acetyl)-4-(4-fluorobenzyl)-N-(4-(4-fluorophenoxy)phenyl)pyrrolidine-2-carboxamide]",≤ 0.3 µM
16,"O=C(Nc1ccc(Oc2ccc(F)cc2)cc1)[C@@H]1C[C@@H](N2Cc3ccccc3C2)CN1C(=O)Cn1cncn1 [Compound 260, (2S,4R)-1-(2-(1H-1,2,4-triazol-1-yl)acetyl)-N-(4-(4-fluorophenoxy)phenyl)-4-(isoindolin-2-yl)pyrrolidine-2-carboxamide]",0.3 to 1 µM
17,"CC(C)CC(=O)N[C@@H](COCc1ccccc1)C(=O)Nc1ccc(Oc2ccc(F)cc2)cc1 [Compound 233, (S)—N-(3-(benzyloxy)-1-(4-(4-fluorophenoxy)phenylamino)-1-oxopropan-2-yl)-3-methylbutanamide]",0.3 to 1 µM

row,SMILES,IC50
1,"O=C(NC(COCc1ccccc1)C(=O)Nc1ccc(Oc2ccccc2)cc1)c1ccco1 (stereo not shown) [Compound 283, N-(2-oxo-1-{[(phenylmethyl)oxy]methyl}-2-{[4-(phenyloxy)phenyl]amino}ethyl)furan-2-carboxamide]",> 1 µM
2,"O=C(Nc1ccc(Oc2ccc(F)cc2)cc1)[C@@H]1C[C@@H](Cc2ccc(F)cc2F)CN1C(=O)Cn1cncn1 [Compound 53, (2S,4R)-1-(2-(1H-1,2,4-triazol-1-yl)acetyl)-4-(2,4-difluorobenzyl)-N-(4-(4-fluorophenoxy)phenyl)pyrrolidine-2-carboxamide]",≤ 0.3 µM
3,"CCCC(=O)NC(COCc1ccccc1)C(=O)Nc1ccc(Oc2ccccc2)cc1 (stereo not shown) [Compound 273, N-(2-oxo-1-{[(phenylmethyl)oxy]methyl}-2-{[4-(phenyloxy)phenyl]amino}ethyl)butanamide]",> 1 µM
4,"O=C(Cn1ccnc1)N[C@@H](COCc1ccccc1)C(=O)Nc1ccc(Oc2ccc(F)cc2)cc1 [Compound 134, (S)-2-(2-(1H-imidazol-1-yl)acetamido)-3-benzyloxy-N-(4-(4-fluorophenoxy)phenyl)propanamide]",≤ 0.3 µM
5,"O=C(NC(COCc1ccccc1)C(=O)Nc1ccc(Oc2ccccc2)cc1)c1cc(F)cc(C(F)(F)F)c1 (stereo not shown) [Compound 398, 3-fluoro-N-(2-oxo-1-{[(phenylmethyl)oxy]methyl}-2-{[4-(phenyloxy)phenyl]amino}ethyl)-5-(trifluoromethyl)benzamide]",> 1 µM
6,"Cc1cc(CC(=O)N2C[C@H](Cc3ccccc3)C[C@H]2C(=O)Nc2ccc(Oc3ccc(F)cc3)cc2)on1 [Compound 32, (2S,4R)-4-benzyl-N-(4-(4-fluorophenoxy)phenyl)-1-(2-(3-methylisoxazol-5-yl)acetyl)pyrrolidine-2-carboxamide]",≤ 0.3 µM
7,"O=C(CC[N+](=O)[O-])N[C@@H](COCc1ccccc1)C(=O)Nc1ccc(Oc2ccc(F)cc2)cc1 [Compound 245, (S)-3-(benzyloxy)-N-(4-(4-fluorophenoxy)phenyl)-2-(3-nitropropanamido)propanamide]",≤ 0.3 µM
8,"O=C(Cn1nccn1)N[C@@H](COCc1ccccc1)C(=O)Nc1ccc(Oc2ccc(F)cc2)cc1 [Compound 138, (S)-2-(2-(2H-1,2,3-triazol-2-yl)acetamido)-3-(benzyloxy)-N-(4-(4-fluorophenoxy)phenyl)propanamide]",≤ 0.3 µM
9,"O=C(NC(COCc1ccccc1)C(=O)Nc1ccc(Oc2ccccc2)cc1)c1c[nH]c2ccccc12 (stereo not shown) [Compound 341, N-(2-oxo-1-{[(phenylmethyl)oxy]methyl}-2-{[4-(phenyloxy)phenyl]amino}ethyl)-1H-indole-3-carboxamide]",> 1 µM
10,"O=C(NC(COCc1ccccc1)C(=O)Nc1ccc(Oc2ccccc2)cc1)c1cccc2[nH]ccc12 (stereo not shown) [Compound 184, N-(3-(benzyloxy)-1-oxo-1-(4-phenoxyphenylamino)propan-2-yl)-1H-indole-4-carboxamide]",0.3 to 1 µM
11,"O=C(Nc1ccc(Oc2ccc(F)cc2)cc1)[C@@H]1C[C@@H](Cc2ccccc2)CN1C(=O)CSc1ncccn1 [Compound 94, (2S,4R)-4-benzyl-N-(4-(4-fluorophenoxy)phenyl)-1-(2-(pyrimidin-2-ylthio)acetyl)pyrrolidine-2-carboxamide]",≤ 0.3 µM
12,"O=C(CC(F)(F)F)NC(COCc1ccccc1)C(=O)Nc1ccc(Oc2ccccc2)cc1 (stereo not shown) [Compound 22, N-(3-(benzyloxy)-1-oxo-1-(4-phenoxyphenylamino)propan-2-yl)-3,3,3-trifluoropropanamide]",0.3 to 1 µM
13,"O=C(COc1cccc2ccccc12)NC(COCc1ccccc1)C(=O)Nc1ccc(Oc2ccccc2)cc1 (stereo not shown) [Compound 371, N-(2-oxo-1-{[(phenylmethyl)oxy]methyl}-2-{[4-(phenyloxy)phenyl]amino}ethyl)-2-(naphthalen-1-yloxy)acetamide]",> 1 µM
14,"O=C(Nc1ccc(Oc2ccc(F)cc2)cc1)[C@@H]1C[C@@H](Cc2ccccc2F)CN1C(=O)Cn1nccn1 [Compound 107, (2S,4R)-1-(2-(2H-1,2,3-triazol-2-yl)acetyl)-4-(2-fluorobenzyl)-N-(4-(4-fluorophenoxy)phenyl)pyrrolidine-2-carboxamide]",≤ 0.3 µM
15,"O=C(NC(COCc1ccccc1)C(=O)Nc1ccc(Oc2ccccc2)cc1)c1cnccn1 (stereo not shown) [Compound 351, N-(2-oxo-1-{[(phenylmethyl)oxy]methyl}-2-{[4-(phenyloxy)phenyl]amino}ethyl)pyrazine-2-carboxamide]",> 1 µM
16,"O=C(Cc1c[nH]c2ccc(F)cc12)N[C@@H](COCc1ccccc1)C(=O)Nc1ccc(Oc2ccc(F)cc2)cc1 [Compound 212, (S)-3-(benzyloxy)-2-(2-(5-fluoro-1H-indol-3-yl)acetamido)-N-(4-(4-fluorophenoxy)phenyl)propanamide]",≤ 0.3 µM
17,"COC(=O)CCC(=O)N1C[C@H](Cc2ccccc2)C[C@H]1C(=O)Nc1ccc(Oc2ccc(F)cc2)cc1 [Compound 125, methyl 4-((2S,4R)-4-benzyl-2-(4-(4-fluorophenoxy)phenylcarbamoyl)pyrrolidin-1-yl)-4-oxobutanoate]",≤ 0.3 µM
